The values below come from PMC10155618 (Beilstein Journal of Organic Chemistry, 2023).

SMILES strings stand for the structures.

Experiment [1] relates to poly rA–poly rU (RNA, polymer) A/U. As to the kind of experiment: UV thermal melting, 260 nm. The following applies: Na+ (sodium cacodylate, Ic = 0.05 mol dm^-3); Na cacodylate pH 7.0; negligible stabilisation; error ±0.5 °C; per base.
Experiment [2] has the same test system. As to the kind of experiment: fluorimetric titration, Scatchard/Global Fit. Conditions: Na+ (sodium cacodylate, Ic = 0.05 mol dm^-3); Na cacodylate pH 7.0; compound 1–2 × 10^-6 M; n fixed 0.2; polynucleotide as phosphates; per base.
Experiment [3] has as its system poly dAdT–poly dAdT (DNA, polymer) AT. The experiment is described as follows: fluorimetric titration, Scatchard/Global Fit. The following applies: Na+ (sodium cacodylate, Ic = 0.05 mol dm^-3); Na cacodylate pH 7.0; compound 1–2 × 10^-6 M; n fixed 0.2; polynucleotide as phosphates; per base.
Experiment [4] has as its target T1, human DPP III (dipeptidyl peptidase III, DPPIII), inactive mutant E451A (Homo sapiens, UniProt Q9NY33, E451A).
T1 construct: gene DPP3; recombinant, heterologous expression in Escherichia coli, purified according to Spoljaric et al; mono-zinc metalloexopeptidase
T1 sequence (Q9NY33 2-737 E451A): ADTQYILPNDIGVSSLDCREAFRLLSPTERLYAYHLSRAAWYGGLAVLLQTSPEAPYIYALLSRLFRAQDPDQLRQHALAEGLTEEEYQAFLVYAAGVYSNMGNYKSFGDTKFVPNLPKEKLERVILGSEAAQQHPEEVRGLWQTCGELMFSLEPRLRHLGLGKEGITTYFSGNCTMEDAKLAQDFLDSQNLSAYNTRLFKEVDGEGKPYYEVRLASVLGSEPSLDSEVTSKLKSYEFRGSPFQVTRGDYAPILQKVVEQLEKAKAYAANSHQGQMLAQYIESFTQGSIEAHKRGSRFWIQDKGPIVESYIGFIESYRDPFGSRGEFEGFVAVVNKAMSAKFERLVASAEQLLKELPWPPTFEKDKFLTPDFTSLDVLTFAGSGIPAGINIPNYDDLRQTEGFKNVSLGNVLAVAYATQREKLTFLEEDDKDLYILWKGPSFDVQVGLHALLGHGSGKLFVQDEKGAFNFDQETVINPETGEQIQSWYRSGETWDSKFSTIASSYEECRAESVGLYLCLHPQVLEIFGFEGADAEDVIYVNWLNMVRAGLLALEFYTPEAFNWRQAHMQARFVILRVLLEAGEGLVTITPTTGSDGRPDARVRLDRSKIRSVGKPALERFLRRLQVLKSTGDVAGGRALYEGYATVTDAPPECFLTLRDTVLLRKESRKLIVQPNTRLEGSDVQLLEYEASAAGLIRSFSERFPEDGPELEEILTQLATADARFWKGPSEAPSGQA
As to the kind of experiment: isothermal titration calorimetry, one set of sites, N fixed to […]. Format: binding. Conditions: read-out: log Ka (converted). (In general: ITC needs no label: the signal is the heat of the interaction.)

For experiment [5], the system named is poly dGdC–poly dGdC (DNA, polymer) GC. The experiment is described as follows: fluorimetric titration, Scatchard/Global Fit. The following applies: Na+ (sodium cacodylate, Ic = 0.05 mol dm^-3); Na cacodylate pH 7.0; compound 1–2 × 10^-6 M; n fixed 0.2; polynucleotide as phosphates; per base.

A word on the ΔTm: it is the shift of the melting midpoint relative to a reference.

As to `COC(=O)[C@H](Cc1ccc2c(c1)c(C)nc1ccccc12)NC(=O)c1ccc2ccc3cccc4ccc1c2c34`, in experiment [1], the ΔTm is less than 0.5 °C.

Turning to `COC(=O)[C@H](Cc1ccc2c(c1)c(C)nc1ccccc12)NC(=O)CCCc1ccc2ccc3cccc4ccc1c2c34` [Phen-Py-1], the “log Ka” value is 7.07 in experiment [2], 5.97 in experiment [3] and 6.87 in experiment [5]. In experiment [1], the ΔTm is less than 0.5 °C. In addition, in experiment [4], the Kd is 3.39 µM.
